Tests used:
[1] = test system: Wide-type adenosine Apt (wild-type aptamer) (DNA, aptamer) ACCTGGGGGAGTATTGCGGAGGAAGGT; assay: SYBR Green I fluorescence; conditions: 100 mM NaCl, 5 mM MgCl2, 20 mM HEPES pH 7.6, 2 mM
[2] = test system: A10-excised Apt (DNA, aptamer) GTATTGCGGAGGAAGGTTTTTAACCTTCGGGG; assay: SYBR Green I fluorescence; conditions: 100 mM NaCl, 5 mM MgCl2; 20 mM HEPES pH 7.6; SYBR Green I displaced; 2 mM
[3] = test system: Duplex-2 (DNA, hairpin) GTATTGCGCCCCGAAGGTTTTTAACCTTCGGGG; assay: SYBR Green I fluorescence; conditions: 100 mM NaCl, 5 mM MgCl2; 20 mM HEPES pH 7.6; 12.5 nM SYBR Green I; 2 mM
[4] = test system: Res-A10-Right cut (DNA, aptamer) GTATTGCGGAGGAAGGTTTTTAACCTTCGGGGA; assay: SYBR Green I fluorescence; conditions: 100 mM NaCl, 5 mM MgCl2; 20 mM HEPES pH 7.6; SYBR Green I displaced; 2 mM
[5] = test system: A10-excised Apt (DNA, aptamer) GTATTGCGGAGGAAGGTTTTTAACCTTCGGGG; assay: SYBR Green I fluorescence titration; conditions: 100 mM NaCl, 5 mM MgCl2, 20 mM HEPES pH 7.6
[6] = test system: Res-A10-Right cut (DNA, aptamer) GTATTGCGGAGGAAGGTTTTTAACCTTCGGGGA; assay: ITC; conditions: 100 mM NaCl, 5 mM MgCl2, 20 mM HEPES pH 7.6, 10 °C
[7] = test system: A10-excised Apt (DNA, aptamer) GTATTGCGGAGGAAGGTTTTTAACCTTCGGGG; assay: ITC; conditions: 100 mM NaCl, 5 mM MgCl2, 20 mM HEPES pH 7.6, 10 °C
[8] = test system: One-site Apt (DNA, aptamer) ACCTTCGGGGAGTATTGCGGAGGAAGGT; assay: ITC; conditions: 100 mM NaCl, 5 mM MgCl2; 20 mM HEPES pH 7.6, 10 °C, one-site model
[9] = test system: Res-A10-Left cut (DNA, aptamer) AGTATTGCGGAGGAAGGTTTTTAACCTTCGGGG; assay: SYBR Green I fluorescence titration; conditions: 100 mM NaCl, 5 mM MgCl2; 20 mM HEPES pH 7.6; SYBR Green I (50 nM) displaced; apparent
[10] = test system: Res-A10-Right cut (DNA, aptamer) GTATTGCGGAGGAAGGTTTTTAACCTTCGGGGA; assay: SYBR Green I fluorescence titration; conditions: 100 mM NaCl, 5 mM MgCl2, 20 mM HEPES pH 7.6
[11] = test system: Duplex-1 (DNA, hairpin) GGGGGTATTGCCCCCGCAAGGTTTTTAACCTTG; assay: SYBR Green I fluorescence; conditions: 100 mM NaCl, 5 mM MgCl2; 20 mM HEPES pH 7.6; 12.5 nM SYBR Green I; 2 mM
[12] = test system: Res-A10-Left cut (DNA, aptamer) AGTATTGCGGAGGAAGGTTTTTAACCTTCGGGG; assay: SYBR Green I fluorescence; conditions: 100 mM NaCl, 5 mM MgCl2; 20 mM HEPES pH 7.6; SYBR Green I displaced; drop two thirds of adenosine's
[13] = SYBR Green I (50 nM) displaced, apparent
[14] = 1 mM AMP in syringe, extremely weak, undetectable heat

Row | binding ([1]; SYBR Green I displaced) | binding [2] | binding [4] | binding ([1]; 50 nM SYBR Green I displaced) | SMILES | other results
1 | no | no |  |  | Cn1c(=O)c2[nH]cnc2n(C)c1=O | 
2 | no | no | no |  | Nc1ccn([C@@H]2O[C@H](CO)[C@@H](O)[C@H]2O)c(=O)n1 | binding [3]: no
3 | no | no |  |  | Nc1nc2c(ncn2[C@@H]2O[C@H](CO)[C@@H](O)[C@H]2O)c(=O)[nH]1 | 
4 |  |  |  | yes | Nc1ncnc2c1ncn2[C@@H]1O[C@H](CO)[C@@H](O)[C@H]1O | Kd [5, 13]: 370 µM; Kd ([6]; one-site model): 21.0 ± 3.8 µM; Kd ([7]; one-site model): 14.8 ± 2.1 µM; Kd [8]: 2.8 ± 0.1 µM; binding [3]: no; Kd [9]: 570 µM; half saturation [10, 13]: 0.94 mM; binding [11]: no
5 |  |  |  | yes | Nc1ncnc2c1ncn2[C@@H]1O[C@H](COP(=O)(O)O)[C@@H](O)[C@H]1O | binding ([5]; SYBR Green I displaced, up to 2 mM): no; binding [6, 14]: no; binding [7, 14]: no; Kd [8]: 13.5 ± 1.6 µM; binding [12]: yes; binding ([10]; SYBR Green I displaced, no binding in titration): no
6 |  | no | no | yes | Nc1ncnc2c1ncn2[C@@H]1O[C@H](COP(=O)(O)OP(=O)(O)OP(=O)(O)O)[C@@H](O)[C@H]1O | 
7 | no | no | no |  | O=c1ccn([C@@H]2O[C@H](CO)[C@@H](O)[C@H]2O)c(=O)[nH]1 | 

From paper PMC8157715 (2020)
